In patent US12421216B2, “Voruciclib polymorphs and methods of making and using thereof” (MEI PHARMA, INC., priority 2019, dated 2025):
Entries after “also recorded” stand apart in the source; their conditions may differ.

Experiments:
[1] = Physical stability upon exposure to accelerated aging conditions (AAC, 40° C./75% RH), re-analysis by HT-XRPD; format: physicochemical; details: for Physical stability upon exposure to AAC / Stable during AAC: 40° C./75% RH, 2 days; for Physical stability upon exposure to AAC: HT-XRPD before and after; for Stable during AAC: salt screen solids; for Liquid phase AAC (XRPD form after accelerated aging): solids from evaporated mother liquors of the salt screen; for Liquid phase AAC (XRPD form after accelerated aging) / Solid phase AAC (XRPD form after accelerated aging): 40° C./75% RH for 2 days, HT-XRPD; for Solid phase AAC (XRPD form after accelerated aging): precipitated solids of the salt screen, dried under vacuum at 50° C.
[2] = Solubility of salts in water and in 0.2 M phosphate buffer pH 6 at 37° C. after 4 hours (HPLC-DAD); format: physicochemical; details: for pH (4 h): pH at end of equilibration
Description: Two sets of solubility experiments were performed. […] In the second set of solubility experiments about 5 mg of the salt was weighed in a standard 1.8 mL HPLC vial. Subsequently, aliquots of 200 μL of aqueous medium were added up to a maximum of 1 mL, while making observations regarding the dissolution behavior of the salts. The vials were left to equilibrate at 37° C. with continuous stirring (see Table 25 for details). After 4 hours the solids were separated from the liquid by centrifugation and the liquid phase was further filtrated through a […] PTFE filter to remove any particulate matter. The concentration of solute was determined by HPLC-DAD analysis. A calibration curve was made from two independent stock solutions of voruciclib prepared in acetonitrile/water. The pH was recorded at the end of the equilibration time.

[3] = 0.2 M phosphate buffer pH 6, 37° C., 4 hours
[4] = 0.2M phosphate buffer pH 6, 37° C., 4 hours, about 1 mg salt in 1 mL
[5] = 0.2M phosphate buffer pH 6, 37° C., 4 hours, about 5 mg salt in 1 mL
[6] = 0.2M phosphate buffer pH 6, 37° C., about 1 mg salt in 1 mL
[7] = 0.2M phosphate buffer pH 6, 37° C., about 5 mg salt in 1 mL
[8] = water, 37° C., 4 hours, about 1 mg salt in 1 mL
[9] = water, 37° C., 4 hours, about 5 mg salt, up to 1 mL
[10] = water, 37° C., about 1 mg salt in 1 mL
[11] = water, 37° C., about 5 mg salt, up to 1 mL

## CN1CCC(c2c(O)cc(O)c3c(=O)cc(-c4ccc(C(F)(F)F)cc4Cl)oc23)C1CO.O=C(O)c1ccccc1 (centres unmarked) [Ben1]
[1]
  Physical stability upon exposure to AAC: physically unstable during exposure to AAC for two days and converted to Ben3
  Stable during AAC: No => Ben3
  Liquid phase AAC (XRPD form after accelerated aging): Ben3

## CN1CC[C@@H](c2c(O)cc(O)c3c(=O)cc(-c4ccc(C(F)(F)F)cc4Cl)oc23)[C@@H]1CO.O=S(=O)(O)c1ccccc1 [Bes1]
[1]
  Physical stability upon exposure to AAC: physically unstable during exposure to AAC and became less crystalline
  Stable during AAC: No => Am or

## CN1CCC(c2c(O)cc(O)c3c(=O)cc(-c4ccc(C(F)(F)F)cc4Cl)oc23)C1CO.CN1CCC(c2c(O)cc(O)c3c(=O)cc(-c4ccc(C(F)(F)F)cc4Cl)oc23)C1CO.O=C(OC(C(=O)O)C(OC(=O)c1ccccc1)C(=O)O)c1ccccc1 (centres unmarked) [DiTr1]
[1]
  Physical stability upon exposure to AAC: physically stable under AAC; also recorded: physically stable upon exposure to AAC for two days
  Solid phase AAC (XRPD form after accelerated aging): DiTr1
  Stable during AAC: Yes
[2]; [3]
  Solubility in phosphate buffer: 30 to 40 µg/mL
[2]; [4]
  solubility: 30 µg/mL
[2]; [5]
  solubility: 40 µg/mL
[2]; [6]
  Form (4 h) of residual solid: DiTr1
  pH (4 h): 6.0
[2]; [7]
  Form (4 h) of residual solid: DiTr1
  pH (4 h): 6.3
[2]; salt screen, water and/or 0.2 M phosphate buffer pH 6
  Dissolution behaviour in aqueous media (gelling, wettability): poor wettability
[2]; water, 37° C., 4 hours
  Solubility in water: 30 to 40 µg/mL
[2]; [8]
  solubility: 40 µg/mL
[2]; [9]
  solubility: 30 µg/mL
[2]; water, 37° C., 4 hours, XRPD
  Solids recovered after solubility determination in water: DiTr1 was recovered
[2]; [10]
  pH (4 h): 4.0
[2]; [11]
  Form (4 h) of residual solid: DiTr1
  pH (4 h): 3.5

## CN1CCC(c2c(O)cc(O)c3c(=O)cc(-c4ccc(C(F)(F)F)cc4Cl)oc23)C1CO.O=C(O)C=CC(=O)O (centres unmarked) [Fum1]
[1]
  Solid phase AAC (XRPD form after accelerated aging): Fum1
  Stable during AAC: Yes

## N[C@@H](CCC(=O)O)C(=O)O [Glm0]
[1]
  Solid phase AAC (XRPD form after accelerated aging): Glm0

## Br.CN1CCC(c2c(O)cc(O)c3c(=O)cc(-c4ccc(C(F)(F)F)cc4Cl)oc23)C1CO (centres unmarked) [HBr1]
[1]
  Physical stability upon exposure to AAC: physically unstable during exposure to accelerated aging conditions and converted to HBr2
  Stable during AAC: No => HBr2
  Liquid phase AAC (XRPD form after accelerated aging): HBr2

## CN1CCC(c2c(O)cc(O)c3c(=O)cc(-c4ccc(C(F)(F)F)cc4Cl)oc23)C1CO.CN1CCC(c2c(O)cc(O)c3c(=O)cc(-c4ccc(C(F)(F)F)cc4Cl)oc23)C1CO.O=S(=O)(O)c1cccc2c(S(=O)(=O)O)cccc12 (centres unmarked) [Hemi-napadisylate]
[2]; [3]
  Solubility pH 6: 0.02 mg/mL
[2]; water, 37° C., 4 hours
  Solubility water: 20 µg/mL

## CN1CCC(c2c(O)cc(O)c3c(=O)cc(-c4ccc(C(F)(F)F)cc4Cl)oc23)C1CO.O=C(O)CC(O)C(=O)O (centres unmarked) [Mal1]
[1]
  Stable during AAC: Yes

## CN1CC[C@@H](c2c(O)cc(O)c3c(=O)cc(-c4ccc(C(F)(F)F)cc4Cl)oc23)[C@@H]1CO.CN1CC[C@@H](c2c(O)cc(O)c3c(=O)cc(-c4ccc(C(F)(F)F)cc4Cl)oc23)[C@@H]1CO.O=S(=O)(O)c1cccc2c(S(=O)(=O)O)cccc12 [Nds1a]
[1]
  Physical stability upon exposure to AAC: stable during exposure to AAC for 2 days; also recorded: physically stable upon exposure to AAC for two days
  Solid phase AAC (XRPD form after accelerated aging): Nds1a
  Stable during AAC: Yes
[2]; [3]
  Solubility in phosphate buffer: 20 µg/mL
[2]; [4]
  solubility: 20 µg/mL
[2]; [5]
  solubility: 20 µg/mL
[2]; 0.2 M phosphate buffer pH 6, 37° C., 4 hours, XRPD
  Solids recovered / salt dissociation after solubility determination in buffer: the residual solids were identical to Nds1a
[2]; [6]
  Form (4 h) of residual solid: Free
  pH (4 h): 6.0
[2]; [7]
  Form (4 h) of residual solid: Nds1a
  pH (4 h): 5.9
[2]; water, 37° C., 4 hours
  Solubility in water: 20 µg/mL
[2]; [8]
  solubility: 30 µg/mL
[2]; [9]
  solubility: 20 µg/mL
[2]; water, 37° C., 4 hours, XRPD
  Solids recovered after solubility determination in water: the residual solids were identical to Nds1a
[2]; [10]
  pH (4 h): 4.3
[2]; [11]
  Form (4 h) of residual solid: Nds1a
  pH (4 h): 3.4

## CN1CC[C@@H](c2c(O)cc(O)c3c(=O)cc(-c4ccc(C(F)(F)F)cc4Cl)oc23)[C@@H]1CO.O=S(=O)(O)O [Sul1]
[1]
  Solid phase AAC (XRPD form after accelerated aging): Sul1
  Stable during AAC: Yes
  Liquid phase AAC (XRPD form after accelerated aging): Sul1

## CN1CCC(c2c(O)cc(O)c3c(=O)cc(-c4ccc(C(F)(F)F)cc4Cl)oc23)C1CO.CN1CCC(c2c(O)cc(O)c3c(=O)cc(-c4ccc(C(F)(F)F)cc4Cl)oc23)C1CO.O=S(=O)(O)O (centres unmarked) [Sul2]
[1]
  Solid phase AAC (XRPD form after accelerated aging): Sul2
  Stable during AAC: Yes

## CN1CCC(c2c(O)cc(O)c3c(=O)cc(-c4ccc(C(F)(F)F)cc4Cl)oc23)C1CO.O=S(=O)(O)O (centres unmarked) [Sul4]
[1]
  Stable during AAC: Yes

## CN1CC[C@@H](c2c(O)cc(O)c3c(=O)cc(-c4ccc(C(F)(F)F)cc4Cl)oc23)[C@@H]1CO.O=C(O)c1ccc2ccccc2c1O [Xin1]
[1]
  Physical stability upon exposure to AAC: physically stable during exposure to AAC
  Stable during AAC: Yes
  Liquid phase AAC (XRPD form after accelerated aging): Xin1
